Laboratory results as given in US20240246946A1, “MODULATORS OF TREX1” (Constellation Pharmaceuticals, Inc., priority 2021, published 2024).

Assays:
full length mouse TREX1 = molecular target: T1, full length mouse TREX1 (Mus musculus, UniProt Q91XB0); assay: mTREX1 Biochemical Assay (fluorescence, dsDNA substrate degradation); details: biochemical, read-out: mTREX1 IC50
T1 construct: N-terminally His-Tev tagged full length mouse TREX1; made in house; host or cells: E. coli
T1 sequence (Q91XB0 1-314): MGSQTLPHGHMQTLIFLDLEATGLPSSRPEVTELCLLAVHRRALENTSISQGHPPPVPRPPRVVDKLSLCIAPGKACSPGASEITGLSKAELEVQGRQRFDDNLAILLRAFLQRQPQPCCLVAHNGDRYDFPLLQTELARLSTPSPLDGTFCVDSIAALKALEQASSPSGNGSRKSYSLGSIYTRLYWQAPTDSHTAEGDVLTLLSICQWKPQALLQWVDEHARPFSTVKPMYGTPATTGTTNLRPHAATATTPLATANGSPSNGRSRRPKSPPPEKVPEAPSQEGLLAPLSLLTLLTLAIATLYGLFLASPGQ
Procedure, shortened: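 Reaction run 18 h at 25° C. with 60 nM TEX615/quencher-labelled dsDNA and 6 pM mouse TREX1 in Tris buffer (pH 7.4, 5 mM MgCl2, 1.0% DMSO), enzyme having sat 4 h with compound across 10 concentrations. EDTA quench; substrate degradation measured as fluorescence increase.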

full length human TREX1 = molecular target: T2, full length human TREX1 (Homo sapiens, UniProt Q9NSU2); assay: hTREX1 Biochemical Assay (fluorescence, dsDNA substrate degradation); details: biochemical, read-out: hTREX1 IC50
T2 construct: N-terminally His-Tev tagged full length human TREX1; made in house; host or cells: E. coli
T2 sequence (Q9NSU2 1-314): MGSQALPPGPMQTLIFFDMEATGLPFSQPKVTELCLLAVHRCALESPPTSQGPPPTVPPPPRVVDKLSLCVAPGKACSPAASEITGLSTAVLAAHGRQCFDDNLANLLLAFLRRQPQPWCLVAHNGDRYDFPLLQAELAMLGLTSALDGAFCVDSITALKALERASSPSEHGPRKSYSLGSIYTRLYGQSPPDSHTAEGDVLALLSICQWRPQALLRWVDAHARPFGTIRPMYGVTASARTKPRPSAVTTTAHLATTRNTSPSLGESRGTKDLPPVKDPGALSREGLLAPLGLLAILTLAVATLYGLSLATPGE
Procedure, shortened: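 Fluorescence rises as enzyme degrades a quenched TEX615-labelled dsDNA substrate (60 nM) in 50 mM Tris, 150 mM NaCl, 5 mM MgCl2, pH 7.4. Full-length His-Tev-tagged human TREX1, 4 pM, sits with compound 4 hours at 25° C before substrate; reaction 18 hours, stopped with EDTA.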

[1] = molecular target: T3, human TREX2 (residues M44-A279) (Homo sapiens, UniProt Q9BQ50); assay: hTREX2 Biochemical Assay (fluorescence, dsDNA substrate degradation); details: biochemical selectivity for hTREX1 vs hTREX2
T3 construct: human TREX2 (residues M44-A279, expressed in E. coli); made in house; host or cells: E. coli
T3 sequence (Q9BQ50 44-279 isoform Q9BQ50-1): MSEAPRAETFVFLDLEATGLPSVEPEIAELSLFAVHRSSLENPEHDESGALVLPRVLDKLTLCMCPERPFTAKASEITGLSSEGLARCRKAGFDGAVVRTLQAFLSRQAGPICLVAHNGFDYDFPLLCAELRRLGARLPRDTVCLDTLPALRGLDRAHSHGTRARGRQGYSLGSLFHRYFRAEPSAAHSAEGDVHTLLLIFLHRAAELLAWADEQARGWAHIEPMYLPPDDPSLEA
Procedure, shortened: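 Fluorogenic dsDNA degradation read at 615 nm (570 nm excitation) after EDTA quench. Final 60 nM substrate, 50 pM His-Tev-tagged enzyme, 5 mM MgCl2, pH 7.4, 1.0% DMSO; 4 h compound–enzyme preincubation then 18 h reaction, both 25 °C; 10-point titration.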

Compound	IC50 (full length mouse TREX1)	IC50 (full length human TREX1)	hTREX1 vs hTREX2 selectivity [1]
CC(c1nc(C(=O)Nc2cnoc2)c(O)c(=O)n1C)C(c1cnn(C(C)(C)CC#N)c1)c1cc(F)ccc1Cl (single isomer, unassigned) [Example 100 D1E2]	> 10 nM	1 to 10 nM	A (A = <25 fold selective for hTREX1)
CC(c1nc(C(=O)Nc2cnoc2)c(O)c(=O)n1C)C(c1cnn(CCOC(F)(F)F)c1)c1cc(F)ccc1C#N (single isomer, unassigned) [Example 101 D1E1]	> 10 nM	> 10 nM	A (A = <25 fold selective for hTREX1)
CC(c1nc(C(=O)Nc2cnoc2)c(O)c(=O)n1C)C(c1cnn(CC(F)F)c1)c1cc(F)ccc1C#N (single isomer, unassigned) [Example 102 D1E1]	> 10 nM	> 10 nM	A (A = <25 fold selective for hTREX1)
COCCn1cc(C(c2cc(F)ccc2C#N)C(C)c2nc(C(=O)Nc3cnoc3)c(O)c(=O)n2C)c(C)n1 (single isomer, unassigned) [Example 103 D2E2]	> 10 nM	> 10 nM	A (A = <25 fold selective for hTREX1)
COCCn1ncc(C(c2cc(F)ccc2C#N)C(C)c2nc(C(=O)Nc3cnoc3)c(O)c(=O)n2C)c1C (single isomer, unassigned) [Example 104 D1E2]	> 10 nM	> 10 nM	A (A = <25 fold selective for hTREX1)
COCCn1ncc(C(c2cc(F)ccc2C#N)C(C)c2nc(C(=O)Nc3cnoc3)c(O)c(=O)n2C)c1C (single isomer, unassigned) [Example 104 D2E1]	> 10 nM	> 10 nM	A (A = <25 fold selective for hTREX1)
COCCn1ncc(C(c2cc(F)ccc2C#N)C(C)c2nc(C(=O)Nc3cnoc3)c(O)c(=O)n2C)c1C (single isomer, unassigned) [Example 104 D2E2]	> 10 nM	1 to 10 nM	B (B = 25 to 50-fold selective for hTREX1)
CC(c1nc(C(=O)Nc2cnoc2)c(O)c(=O)n1C)C(c1cnn(C(C)C)c1)c1ccccc1C#N (single isomer, unassigned) [Example 105 D1E1]	> 10 nM	> 10 nM	A (A = <25 fold selective for hTREX1)
CC(c1nc(C(=O)Nc2cnoc2)c(O)c(=O)n1C)C(c1cnn(C(C)C)c1)c1ccccc1C#N (single isomer, unassigned) [Example 105 D2E2]	> 10 nM	> 10 nM	A (A = <25 fold selective for hTREX1)
CC(c1nc(C(=O)Nc2cnoc2)c(O)c(=O)n1C)C(c1cnn(C2COC2)c1)c1ccccc1C#N (single isomer, unassigned) [Example 106 D1E2]	> 10 nM	> 10 nM	A (A = <25 fold selective for hTREX1)
CC(c1nc(C(=O)Nc2cnoc2)c(O)c(=O)n1C)C(c1cnn(C2COC2)c1)c1ccccc1C#N (single isomer, unassigned) [Example 106 D2E1]	> 10 nM	> 10 nM	B (B = 25 to 50-fold selective for hTREX1)
COCCn1ncc(C(c2cc(F)ccc2Cl)C(C)c2nc(C(=O)Nc3cnoc3)c(O)c(=O)n2C)c1C (single isomer, unassigned) [Example 108 D1E2]	> 10 nM	> 10 nM	A (A = <25 fold selective for hTREX1)
COCCn1ncc(C(c2cc(F)ccc2Cl)C(C)c2nc(C(=O)Nc3cnoc3)c(O)c(=O)n2C)c1C (single isomer, unassigned) [Example 108 D2E2]	> 10 nM	> 10 nM	A (A = <25 fold selective for hTREX1)
Cc1nn(C)c(C)c1C(c1cc(F)ccc1C#N)C(C)c1nc(C(=O)Nc2cnoc2)c(O)c(=O)n1C (single isomer, unassigned) [Example 109 D1E2]	> 10 nM	> 10 nM	A (A = <25 fold selective for hTREX1)
COCCn1nc(C)c(C(c2cc(F)ccc2C#N)C(C)c2nc(C(=O)Nc3cnoc3)c(O)c(=O)n2C)c1C (single isomer, unassigned) [Example 110 D1E2]	> 10 nM	> 10 nM	A (A = <25 fold selective for hTREX1)
Cc1cc(C(c2cc(F)ccc2C#N)C(C)c2nc(C(=O)Nc3cnoc3)c(O)c(=O)n2C)n(C)n1 (single isomer, unassigned) [Example 111 D2E2]	> 10 nM	> 10 nM	A (A = <25 fold selective for hTREX1)
Cc1cc(C(c2cc(F)ccc2C#N)C(C)c2nc(C(=O)Nc3cnoc3)c(O)c(=O)n2C)nn1C (single isomer, unassigned) [Example 112 D1E2]	> 10 nM	> 10 nM	A (A = <25 fold selective for hTREX1)
Cc1cc(C(c2cc(F)ccc2C#N)C(C)c2nc(C(=O)Nc3cnoc3)c(O)c(=O)n2C)nn1C (single isomer, unassigned) [Example 112 D2E2]	> 10 nM	> 10 nM	A (A = <25 fold selective for hTREX1)
Cc1cc(C(c2cc(F)ccc2Cl)C(C)c2nc(C(=O)Nc3cnoc3)c(O)c(=O)n2C)n(C)n1 (single isomer, unassigned) [Example 113 D1E2]	> 10 nM	> 10 nM	A (A = <25 fold selective for hTREX1)
Cc1cc(C(c2cc(F)ccc2Cl)C(C)c2nc(C(=O)Nc3cnoc3)c(O)c(=O)n2C)n(C)n1 (single isomer, unassigned) [Example 113 D2E1]	> 10 nM	> 10 nM	A (A = <25 fold selective for hTREX1)
Cc1cnc(C(c2cc(F)ccc2C#N)C(C)c2nc(C(=O)Nc3cnoc3)c(O)c(=O)n2C)cn1 (single isomer, unassigned) [Example 115 D1E1]	> 10 nM	> 10 nM	A (A = <25 fold selective for hTREX1)
Cc1cnc(C(c2cc(F)ccc2Cl)C(C)c2nc(C(=O)Nc3cnoc3)c(O)c(=O)n2C)cn1 (single isomer, unassigned) [Example 117 D1E1]	> 10 nM	> 10 nM	A (A = <25 fold selective for hTREX1)
Cc1cnc(C(c2cc(F)ccc2Cl)C(C)c2nc(C(=O)Nc3cnoc3)c(O)c(=O)n2C)cn1 (single isomer, unassigned) [Example 117 D2E2]	> 10 nM	> 10 nM	A (A = <25 fold selective for hTREX1)
CC(c1nc(C(=O)Nc2cnoc2)c(O)c(=O)n1C)C(c1cnc(C(F)(F)F)cn1)c1ccccc1C#N (single isomer, unassigned) [Example 118 D1E2]	> 10 nM	> 10 nM	A (A = <25 fold selective for hTREX1)
CC(c1nc(C(=O)Nc2cnoc2)c(O)c(=O)n1C)C(c1cnc(C(F)(F)F)cn1)c1ccccc1C#N (single isomer, unassigned) [Example 118 D2E2]	> 10 nM	> 10 nM	A (A = <25 fold selective for hTREX1)
Cc1cnc(C)c(C(c2cc(F)ccc2C#N)C(C)c2nc(C(=O)Nc3cnoc3)c(O)c(=O)n2C)n1 (single isomer, unassigned) [Example 119 DIE1]	1 to 10 nM	< 1 nM	C (C = >50 fold selective for hTREX1)
Cc1cnc(C)c(C(c2ccccc2Cl)C(C)c2nc(C(=O)Nc3cnoc3)c(O)c(=O)n2C)n1 (single isomer, unassigned) [Example 120 D1E2]	> 10 nM	> 10 nM	A (A = <25 fold selective for hTREX1)
